According to the NIST ThermoML archive (doi:10.1016/j.jct.2014.05.021):

Assay: excess molar enthalpy (molar enthalpy of mixing); xn = mol fraction of the nth substance listed
Details: 101 kPa, Liquid, Calvet calorimetry

[Ca] [calcium] + [Ag]
Details	excess molar enthalpy [kcal/mol]
1131 K, x1 = 0.7564	-3.38
1131 K, x1 = 0.8188	-2.59
1131 K, x1 = 0.8703	-1.83
1131 K, x1 = 0.8808	-1.66
1131 K, x1 = 0.9156	-1.19
1131 K, x1 = 0.9224	-1.1
1131 K, x1 = 0.9626	-0.537
1131 K, x1 = 0.9647	-0.496
1254 K, x1 = 0.0642	-1.32
1254 K, x1 = 0.0984	-1.7
1254 K, x1 = 0.1103	-1.83
1254 K, x1 = 0.1123	-2.28
1254 K, x1 = 0.1203	-2.04
1254 K, x1 = 0.1288	-2.6
1254 K, x1 = 0.1327	-2.32
1254 K, x1 = 0.1487	-2.66
1254 K, x1 = 0.1699	-3.08
1254 K, x1 = 0.1893	-3.43
1254 K, x1 = 0.1897	-3.31
1254 K, x1 = 0.2073	-3.25
1254 K, x1 = 0.2145	-3.87
1254 K, x1 = 0.2393	-3.77
1254 K, x1 = 0.2405	-4.25
1254 K, x1 = 0.249	-4.69
1254 K, x1 = 0.2673	-4.17
1254 K, x1 = 0.2711	-4.66
1254 K, x1 = 0.2999	-4.55
1254 K, x1 = 0.3115	-5.08
1254 K, x1 = 0.3416	-4.95
1254 K, x1 = 0.3685	-5.53
1254 K, x1 = 0.3962	-5.28
1254 K, x1 = 0.4438	-5.82
1254 K, x1 = 0.4634	-5.88
1254 K, x1 = 0.4708	-5.44
1254 K, x1 = 0.5175	-5.79
1254 K, x1 = 0.5477	-5.3
1254 K, x1 = 0.5562	-5.62
1254 K, x1 = 0.6306	-4.79
1254 K, x1 = 0.6313	-5
1254 K, x1 = 0.6768	-4.7
1254 K, x1 = 0.7157	-4.28
1254 K, x1 = 0.7353	-3.76
1254 K, x1 = 0.8259	-2.59
1254 K, x1 = 0.9396	-0.962
